Assay results taken from US5089401A, “Method for the preparation of fructose-containing oligosaccharide” (Ensuiko Sugar Refining Co., Ltd., priority 1990, dated 1992).

Legend:
β-fructofuranosidase [1] = target: T1, β-fructofuranosidase (Microbacterium saccharophilum, UniProt Q8VW87); test: decomposition of saccharides by the β-fructofuranosidase (substrate specificity); format: biochemical, Arthrobacter sp. K-1
T1 construct: K-1 culture; crude supernatant or purified preparation
T1 sequence (Q8VW87 37-578): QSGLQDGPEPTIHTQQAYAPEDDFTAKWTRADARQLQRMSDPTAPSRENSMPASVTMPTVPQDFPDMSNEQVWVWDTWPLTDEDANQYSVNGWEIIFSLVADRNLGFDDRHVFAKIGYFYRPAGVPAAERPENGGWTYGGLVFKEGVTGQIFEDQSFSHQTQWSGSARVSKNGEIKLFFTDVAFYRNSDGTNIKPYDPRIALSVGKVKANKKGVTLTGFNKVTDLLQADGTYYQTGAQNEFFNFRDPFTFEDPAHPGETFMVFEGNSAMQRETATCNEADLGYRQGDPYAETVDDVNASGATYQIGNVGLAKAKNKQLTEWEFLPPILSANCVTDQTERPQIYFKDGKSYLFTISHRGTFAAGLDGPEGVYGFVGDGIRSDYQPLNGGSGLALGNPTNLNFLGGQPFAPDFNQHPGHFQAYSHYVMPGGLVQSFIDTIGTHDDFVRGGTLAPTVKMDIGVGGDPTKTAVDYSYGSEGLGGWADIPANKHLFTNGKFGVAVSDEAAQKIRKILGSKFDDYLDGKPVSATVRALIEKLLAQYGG

bifidus bacteria = conditions: cited from earlier work
β-fructofuranosidase [2] = target: T1, β-fructofuranosidase; format: biochemical, Arthrobacter sp. K-1

OC[C@H]1O[C@@](CO)(OC[C@@]2(O[C@H]3O[C@H](CO)[C@@H](O)[C@H](O)[C@H]3O)O[C@H](CO)[C@@H](O)[C@@H]2O)[C@@H](O)[C@@H]1O [1-kestose]
activity of the enzyme in the decomposition of the saccharide (β-fructofuranosidase [1]): hardly exhibits activity

OC[C@H]1O[C@@](CO)(O[C@H]2O[C@H](CO)[C@@H](O[C@H]3O[C@H](CO)[C@@H](O)[C@H](O)[C@H]3O)[C@H](O)[C@H]2O)[C@@H](O)[C@@H]1O [elrose, maltosyl fructoside]
activity of the enzyme in the decomposition of the saccharide (β-fructofuranosidase [1]): active in the decomposition

OC[C@H]1O[C@@H](O[C@H]2[C@H](O)[C@@H](O)[C@@H](O[C@]3(CO)O[C@H](CO)[C@@H](O)[C@@H]3O)O[C@@H]2CO)[C@H](O)[C@@H](O)[C@H]1O [lactosucrose, O-β-D-galactopyranosyl-(1→4)-O-α-D-glucopyranosyl-(1→2)-O-β-D-fructofuranoside]
activity as a growth factor of bifidus bacteria (bifidus bacteria): has an activity as a growth factor of bifidus bacteria

OC[C@H]1O[C@@](CO)(OC[C@H]2O[C@](O)(CO)[C@@H](O)[C@@H]2O)[C@@H](O)[C@@H]1O [levan biose]
activity of the enzyme in the decomposition of the saccharide (β-fructofuranosidase [1]): hardly exhibits activity

OC[C@H]1O[C@@](CO)(OC[C@H]2O[C@H](O[C@]3(CO)O[C@H](CO)[C@@H](O)[C@@H]3O)[C@H](O)[C@@H](O)[C@@H]2O)[C@@H](O)[C@@H]1O [neokestose]
activity of the enzyme in the decomposition of the saccharide (β-fructofuranosidase [1]): active in the decomposition

OC[C@H]1O[C@@](CO)(OC[C@@]2(OC[C@@]3(O[C@H]4O[C@H](CO)[C@@H](O)[C@H](O)[C@H]4O)O[C@H](CO)[C@@H](O)[C@@H]3O)O[C@H](CO)[C@@H](O)[C@@H]2O)[C@@H](O)[C@@H]1O [nistose]
activity of the enzyme in the decomposition of the saccharide (β-fructofuranosidase [1]): hardly exhibits activity

OC[C@H]1O[C@H](OC[C@H]2O[C@H](O[C@]3(CO)O[C@H](CO)[C@@H](O)[C@@H]3O)[C@H](O)[C@@H](O)[C@@H]2O)[C@H](O)[C@@H](O)[C@H]1O [raffinose]
activity of the enzyme in the decomposition of the saccharide (β-fructofuranosidase [1]): active in the decomposition

OC[C@H]1O[C@H](OC[C@H]2O[C@H](OC[C@H]3O[C@H](O[C@]4(CO)O[C@H](CO)[C@@H](O)[C@@H]4O)[C@H](O)[C@@H](O)[C@@H]3O)[C@H](O)[C@@H](O)[C@H]2O)[C@H](O)[C@@H](O)[C@H]1O [stachyose]
activity of the enzyme in the decomposition of the saccharide (β-fructofuranosidase [1]): active in the decomposition

OC[C@H]1O[C@@](CO)(O[C@H]2O[C@H](CO)[C@@H](O)[C@H](O)[C@H]2O)[C@@H](O)[C@@H]1O [sucrose]
activity of the enzyme in the decomposition of the saccharide (β-fructofuranosidase [1]): active in the decomposition

OC[C@H]1O[C@@](CO)(O[C@H]2OC[C@@H](O)[C@H](O)[C@H]2O)[C@@H](O)[C@@H]1O [xylsucrose, O-β-D-fructofuranosyl-(2→1)-O-α-D-xylopyranoside]
activity of the enzyme in the decomposition of the saccharide (β-fructofuranosidase [1]): active in the decomposition

copper
inhibitive effect of the ion on the enzyme (β-fructofuranosidase [2]): susceptible to the inhibitive effect

inulobiose
activity of the enzyme in the decomposition of the saccharide (β-fructofuranosidase [1]): hardly exhibits activity

mercury
inhibitive effect of the ion on the enzyme (β-fructofuranosidase [2]): susceptible to the inhibitive effect

silver
inhibitive effect of the ion on the enzyme (β-fructofuranosidase [2]): susceptible to the inhibitive effect

zinc
inhibitive effect of the ion on the enzyme (β-fructofuranosidase [2]): susceptible to the inhibitive effect
